# Assay results published in patent US8562949B2, “Radiolabeled dihydrotetrabenazine derivatives and their use as imaging agents” (The Trustees of the University of Pennsylvania, priority 2006, dated 2013).
# Read-outs that look alike come from different tables or passages of the source.
# Assays:
# [1] = Blocking of pancreatic signal by DTBZ in rats; assay type: in vivo; settings: rat
# Experimental: (§1) Rats were pretreated with non-radiolabeled DBTZ (3.8 mg/kg) five minutes prior to injection with (+)-6b.
# VMAT-2 = system: T1, VMAT-2; experiment: Blocking of pancreatic signal by DTBZ in rats; assay type: in vivo; settings: rat
# T1 construct: from tissue; host or cells: living rats; organs dissected after iv injection
# Experimental: as §1
# [2] = Metabolic stability in mouse brain; assay type: in vivo, mice; settings: mouse striatum, 30 minutes post-injection, ethyl acetate extraction/TLC
# Experimental: Two mice were injected with 200 μCi [^18F]FP-(+)-DTBZ and sacrificed at 30 minutes post-injection. The brains were removed and the striatal regions were dissected out. The striatal homogenates (prepared in PBS, 10% w/v) were extracted with 0.5 mL of ethyl acetate in the presence of a small amount of carrier (10 μg of […]). Extraction was repeated three times and the ethyl acetate layers and the buffer layers were counted separately to determine the percent extracted. […] A control sample ([^18F]FP-(±)-DTBZ mixed with normal mouse striatal homogenates in situ) was carried out in parallel for comparison.
# [3] = Human radiation dosimetry estimates from mouse biodistribution; settings: adult male model
# Description: From the organ biodistribution data in Table 4 of Example 7, human radiation dosimetry estimates were calculates. In the mass based extrapolation, the concentration in the animal organs is converted to a concentration in human organs by multiplying the animal concentration by a ratio of the total body weight of the animals and humans (Kirschner, et al., 1975). Then the percent in the human organs is derived using organ masses taken from a standard model of the human body for adult males (Cristy and Eckerman, 1987). Data were fit using the SAAM II software (Foster and Barrett, 1999). Time integrals of activity were calculated and converted to residence times (Loevinger, et al., 1988); organ residence times were entered into the OLIND/EXM software (STabin, et al., 2005) using the adult male model. No excretion of activity was assumed; any activity not accounted for was considered to be uniformly distributed throughout the remainder of the body or removed only by physical decay. […] The estimated effective dose (0.047 rem/mCi) also compares favorably to radiation doses received with other approved radiopharmaceuticals.
# VMAT2 sites = VMAT2 sites (Mus musculus, UniProt Q8BRU6); settings: lesioned mice
# VMAT2 sites, sequence (Q8BRU6 whole entry): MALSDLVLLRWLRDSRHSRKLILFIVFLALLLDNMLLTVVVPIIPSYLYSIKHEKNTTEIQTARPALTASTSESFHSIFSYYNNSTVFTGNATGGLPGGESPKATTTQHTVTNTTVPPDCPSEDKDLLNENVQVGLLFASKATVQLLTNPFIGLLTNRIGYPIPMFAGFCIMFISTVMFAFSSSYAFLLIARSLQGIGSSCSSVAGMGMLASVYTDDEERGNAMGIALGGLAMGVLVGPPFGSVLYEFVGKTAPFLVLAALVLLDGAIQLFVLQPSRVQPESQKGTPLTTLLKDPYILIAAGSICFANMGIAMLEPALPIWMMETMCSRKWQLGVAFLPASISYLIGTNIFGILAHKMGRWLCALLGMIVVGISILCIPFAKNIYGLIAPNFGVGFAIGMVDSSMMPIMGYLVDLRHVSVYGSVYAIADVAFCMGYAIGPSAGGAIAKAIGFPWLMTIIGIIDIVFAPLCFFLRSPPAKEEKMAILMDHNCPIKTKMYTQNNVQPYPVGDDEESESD
# Description: Thirty minutes after injection, the mice were sacrificed and the brains removed. Different regions corresponding to striatum (ST), hippocampus (HP), cerebellum (CB), and cortex (CX) were dissected. In particular, the lesioned region was separated from non-lesioned area of the striatal tissues. Samples were counted in a gamma counter with two different window settings for F-18 and I-125, respectively, to obtain the regional distribution of each tracer.
# To measure the degree of lesion, a dual-isotope experiment comparing the striatal uptakes in lesioned vs. unlesioned sites using [^18F]FP-DTBZ was performed. A marker [^125I]IPT (selective for dopamine transporters) was injected simultaneously.
# VMAT2 [4] = target: VMAT2 (Rattus norvegicus, UniProt Q01827); experiment: Blocking of pancreatic signal by DTBZ in rats; assay type: in vivo; parameters: from tissue; host or cells: living rats; organs dissected after iv injection; settings: 30 min, DTBZ 3.8 mg/kg pretreatment
# VMAT2 (Rattus norvegicus, UniProt Q01827), sequence (Q01827 whole entry): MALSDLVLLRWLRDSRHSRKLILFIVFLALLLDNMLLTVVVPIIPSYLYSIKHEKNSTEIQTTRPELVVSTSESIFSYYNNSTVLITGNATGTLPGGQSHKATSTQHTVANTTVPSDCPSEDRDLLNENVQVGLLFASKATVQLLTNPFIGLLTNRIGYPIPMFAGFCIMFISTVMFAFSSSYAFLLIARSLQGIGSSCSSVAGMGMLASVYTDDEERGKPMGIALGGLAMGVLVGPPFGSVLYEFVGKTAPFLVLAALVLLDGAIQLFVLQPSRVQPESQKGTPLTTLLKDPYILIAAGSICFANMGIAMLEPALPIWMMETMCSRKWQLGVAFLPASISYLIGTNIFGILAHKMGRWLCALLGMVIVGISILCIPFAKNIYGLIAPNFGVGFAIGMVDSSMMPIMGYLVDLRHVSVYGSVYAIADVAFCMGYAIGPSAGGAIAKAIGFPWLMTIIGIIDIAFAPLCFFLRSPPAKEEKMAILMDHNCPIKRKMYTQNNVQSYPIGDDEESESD
# Experimental: as §1
# [5] = Partition coefficient 1-octanol/phosphate buffer; assay type: physicochemical; settings: pH 7.4, 1-octanol and phosphate buffer
# Experimental: Partition coefficients were measured by mixing the [^18F]tracer with 3 g each of 1-octanol and buffer (0.1 M phosphate, pH 7.4) in a test tube. The test tube was vortexed for 3 min at room temperature, followed by centrifugation for 5 min. Two weighed samples (0.5 g each) from the 1-octanol and buffer layers were counted in a well counter. The partition coefficient was determined by calculating the ratio of cpm/g of 1-octanol to that of buffer. Samples from the 1-octanol layer were re-partitioned until consistent partitions of coefficient values were obtained. Values are the mean±SEM of three independent experiments, each in duplicates.
# VMAT2 [6] = target: VMAT2 (Mus musculus, UniProt Q8BRU6); experiment: Saturation binding of 18F ligands in mouse striatal homogenates; parameters: The basal forebrain regions of rat and mouse brains were then dissected; from tissue; host or cells: mouse striatal homogenate; mouse brain coronal sections; settings: estimated based on S.A.=2000 Ci/mmole
# VMAT2 (Mus musculus, UniProt Q8BRU6), sequence (Q8BRU6 whole entry): as the sequence (Q8BRU6 whole entry) above
# Experimental: The basal forebrain regions of rat and mouse brains were then dissected. The tissue homogenates were prepared in 50 mM Hepes, pH 7.5 and 0.3 M sucrose. The specific binding of ^3H or ^18F ligands were determined following the procedures described (Scherman D, Raisman R, Ploska A, Agid Y., [^3H]Dihydrotetrabenazine, a new in vitro monoaminergic probe for human brain, J. Neurochem., 1988:50:1131-36). Total volume of reaction for the assay was 0.2 ml. […] In saturation experiments, increasing concentrations of labeled ligand […] in 50 μl buffer were incubated with 100 μl of homogenates (100-250 μg). Incubation was carried out routinely at room temperature for 90 min. The samples were then filtered through glass fiber filters No. 25 (Schleicher and Schuell, Keene, N.H.) and the bound radioactivity was determined for ^18F in a gamma counter (Packard 5000) with 70% efficiency. Filters containing bound ^3H ligand were dissolved in 7 ml Ecolite(+) overnight and the radioactivity was counted next day in the scintillation counter (Beckman) with 65% counting efficiency. […] Nonspecific binding was determined in the presence of 10 μM tetrabenazine. Both saturation and competition experiments were analyzed using the nonlinear least-square curve fitting program LIGAND. […]
compound,measurement,setting,value
COc1cc2c(cc1OCCC[18F])CCN1C[C@@H](CC(C)C)[C@H](O)C[C@H]21 [[^18F]-(+)-6b],tissue uptake at 30 min,"[1]; blood, 30 min Blocking, DTBZ 3.8 mg/kg pretreatment, read-out: Blood",0.32 ± 0.04 %ID/g
same,tissue uptake at 30 min,"[1]; blood, 30 min Control, read-out: Blood",0.2 ± 0.01 %ID/g
same,tissue uptake at 30 min,"[1]; cortex, 30 min Blocking, DTBZ 3.8 mg/kg pretreatment, read-out: Regional Brain Distribution Cortex",0.26 ± 0.05 %ID/g
same,tissue uptake at 30 min,"[1]; cortex, 30 min Control, read-out: Regional Brain Distribution Cortex",0.36 %ID/g
same,tissue uptake at 30 min,"[1]; hippocampus, 30 min Blocking, DTBZ 3.8 mg/kg pretreatment, read-out: Regional Brain Distribution Hippocampus",0.25 ± 0.03 %ID/g
same,tissue uptake at 30 min,"[1]; hippocampus, 30 min Control, read-out: Regional Brain Distribution Hippocampus",0.54 ± 0.03 %ID/g
same,tissue uptake at 30 min,"[1]; hypothalamus, 30 min Blocking, DTBZ 3.8 mg/kg pretreatment, read-out: Regional Brain Distribution Hypothalamus",0.25 ± 0.04 %ID/g
same,tissue uptake at 30 min,"[1]; hypothalamus, 30 min Control, read-out: Regional Brain Distribution Hypothalamus",1.2 ± 0.07 %ID/g
same,tissue uptake at 30 min,"[1]; striatum, 30 min Blocking, DTBZ 3.8 mg/kg pretreatment, read-out: Regional Brain Distribution Striatum",0.27 ± 0.02 %ID/g
same,tissue uptake at 30 min,"[1]; striatum, 30 min Control, read-out: Regional Brain Distribution Striatum",1.94 ± 0.03 %ID/g
same,tissue uptake at 30 min,"VMAT-2; cerebellum, 30 min Blocking, DTBZ 3.8 mg/kg pretreatment, read-out: Regional Brain Distribution Cerebellum",0.25 ± 0.03 %ID/g
same,tissue uptake at 30 min,"VMAT-2; cerebellum, 30 min Control, read-out: Regional Brain Distribution Cerebellum",0.36 %ID/g
same,tissue uptake at 30 min,"VMAT-2; pancreas, 30 min Blocking, DTBZ 3.8 mg/kg pretreatment, read-out: Pancreas",3.1 ± 0.3 %ID/g
same,tissue uptake at 30 min,"VMAT-2; pancreas, 30 min Control, read-out: Pancreas",4.39 ± 0.64 %ID/g
same,degradation,[2],less than 5%
same,"human radiation dose, liver and bone surface",[3],around 0.11 rem/mCi
same,"human radiation dose, most organs",[3],0.04-0.06 rem/mCi
same,correlation (r) of lesioned-site uptake with [125I]IPT data,VMAT2 sites,0.95
same,"Blocking, Pancreas",VMAT2 [4],30%
same,"Blocking, Striatum",VMAT2 [4],> 90%
COc1cc2c(cc1OCCC[18F])CCN1CC(CC(C)C)C(O)CC21 (racemic) [[^18F]6b],logD at 3 min,[5],2.61
same,Kd,VMAT2 [6],0.48 nM
